The conditions of this data set: 101.33 kPa, Liquid, Vibrating tube method.

± gives the expanded uncertainty stated by the source.

What is called mass density is the mass of a sample divided by its volume. As for `CCCCCCCCCCCC[n+]1ccn(CC)c1.[Br-]` [3-dodecyl-1-ethyl-1H-imidazolium bromide], the mass density is, setting by setting: (293.15 K) 1084.31 ± 1.5 kg/m3; (298.15 K) 1080.97 ± 1.5 kg/m3; (303.15 K) 1077.53 ± 1.5 kg/m3; (308.15 K) 1074.03 ± 1.5 kg/m3; (313.15 K) 1070.48 ± 1.5 kg/m3; (318.15 K) 1066.96 ± 1.5 kg/m3. The mass density (323.15 K) was 1063.43 ± 1.5 kg/m3.
For `CCCCCC[n+]1ccn(CCCC)c1.[Br-]` [1-butyl-3-hexyl-1H-imidazolium bromide], the mass density (293.15 K) is listed as 1148.8 ± 7.2 kg/m3; the mass density (298.15 K) was 1145.49 ± 7.1 kg/m3; the mass density (303.15 K) is on record as 1142.11 ± 7.1 kg/m3; the mass density (308.15 K) stood at 1138.66 ± 7 kg/m3; the mass density (313.15 K) was 1135.17 ± 7 kg/m3; the mass density (318.15 K) worked out at 1131.7 ± 7 kg/m3. For the same molecule, the mass density (323.15 K) is reported as 1128.22 ± 6.9 kg/m3.
For `CCCCCCCCCCCC[n+]1ccn(CCCC)c1.[Br-]` [1-butyl-3-dodecyl-1H-imidazolium bromide], the mass density (293.15 K) amounted to 1059.3 ± 1.5 kg/m3; the mass density (298.15 K) is 1055.99 ± 1.5 kg/m3; the mass density (303.15 K) is on record as 1052.6 ± 1.5 kg/m3; the mass density (308.15 K) was 1049.18 ± 1.5 kg/m3; the mass density (313.15 K) is given as 1045.73 ± 1.5 kg/m3; the mass density (318.15 K) was 1042.27 ± 1.5 kg/m3. For the same molecule, the mass density (323.15 K) is 1038.83 ± 1.5 kg/m3.
